Holding throughout (assay): AlphaScreen Assay
(In general: In Alpha technology, singlet oxygen from a donor bead excites a nearby acceptor bead.)

Assay [1] addresses Vascular endothelial growth factor receptor 2 (Homo sapiens, UniProt P35968).
A further assay has as its target Ephrin type-A receptor 2 (Homo sapiens, UniProt P29317).
A further assay deals with T1, Ephrin type-B receptor 4 (Homo sapiens, UniProt P54760).
T1 sequence (P54760 whole entry): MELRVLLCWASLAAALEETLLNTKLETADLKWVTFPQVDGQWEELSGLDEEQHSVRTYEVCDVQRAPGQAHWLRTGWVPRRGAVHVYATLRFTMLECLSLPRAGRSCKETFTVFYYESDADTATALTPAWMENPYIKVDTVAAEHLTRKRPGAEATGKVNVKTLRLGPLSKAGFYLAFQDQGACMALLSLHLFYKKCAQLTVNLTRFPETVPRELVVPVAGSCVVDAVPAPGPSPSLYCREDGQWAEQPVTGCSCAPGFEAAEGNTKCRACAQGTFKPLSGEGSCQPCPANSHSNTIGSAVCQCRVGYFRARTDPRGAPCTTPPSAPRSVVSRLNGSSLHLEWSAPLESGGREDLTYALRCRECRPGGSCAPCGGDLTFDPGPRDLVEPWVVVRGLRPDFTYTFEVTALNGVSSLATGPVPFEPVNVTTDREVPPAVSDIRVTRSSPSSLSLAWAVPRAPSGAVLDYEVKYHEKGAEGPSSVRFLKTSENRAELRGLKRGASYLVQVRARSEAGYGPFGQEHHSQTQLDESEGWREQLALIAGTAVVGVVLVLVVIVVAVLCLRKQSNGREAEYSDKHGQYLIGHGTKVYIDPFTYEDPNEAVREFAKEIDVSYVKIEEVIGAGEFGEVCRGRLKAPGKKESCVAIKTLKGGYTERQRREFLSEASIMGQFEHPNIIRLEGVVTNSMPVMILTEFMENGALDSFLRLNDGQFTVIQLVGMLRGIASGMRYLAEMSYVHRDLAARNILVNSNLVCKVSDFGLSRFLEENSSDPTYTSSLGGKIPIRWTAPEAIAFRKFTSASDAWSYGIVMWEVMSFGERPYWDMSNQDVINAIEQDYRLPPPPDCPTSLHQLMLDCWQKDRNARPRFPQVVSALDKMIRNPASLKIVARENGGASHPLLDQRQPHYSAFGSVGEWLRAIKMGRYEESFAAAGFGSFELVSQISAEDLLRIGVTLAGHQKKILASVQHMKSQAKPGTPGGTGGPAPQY

Vascular endothelial growth factor receptor 2, sequence (P35968 whole entry): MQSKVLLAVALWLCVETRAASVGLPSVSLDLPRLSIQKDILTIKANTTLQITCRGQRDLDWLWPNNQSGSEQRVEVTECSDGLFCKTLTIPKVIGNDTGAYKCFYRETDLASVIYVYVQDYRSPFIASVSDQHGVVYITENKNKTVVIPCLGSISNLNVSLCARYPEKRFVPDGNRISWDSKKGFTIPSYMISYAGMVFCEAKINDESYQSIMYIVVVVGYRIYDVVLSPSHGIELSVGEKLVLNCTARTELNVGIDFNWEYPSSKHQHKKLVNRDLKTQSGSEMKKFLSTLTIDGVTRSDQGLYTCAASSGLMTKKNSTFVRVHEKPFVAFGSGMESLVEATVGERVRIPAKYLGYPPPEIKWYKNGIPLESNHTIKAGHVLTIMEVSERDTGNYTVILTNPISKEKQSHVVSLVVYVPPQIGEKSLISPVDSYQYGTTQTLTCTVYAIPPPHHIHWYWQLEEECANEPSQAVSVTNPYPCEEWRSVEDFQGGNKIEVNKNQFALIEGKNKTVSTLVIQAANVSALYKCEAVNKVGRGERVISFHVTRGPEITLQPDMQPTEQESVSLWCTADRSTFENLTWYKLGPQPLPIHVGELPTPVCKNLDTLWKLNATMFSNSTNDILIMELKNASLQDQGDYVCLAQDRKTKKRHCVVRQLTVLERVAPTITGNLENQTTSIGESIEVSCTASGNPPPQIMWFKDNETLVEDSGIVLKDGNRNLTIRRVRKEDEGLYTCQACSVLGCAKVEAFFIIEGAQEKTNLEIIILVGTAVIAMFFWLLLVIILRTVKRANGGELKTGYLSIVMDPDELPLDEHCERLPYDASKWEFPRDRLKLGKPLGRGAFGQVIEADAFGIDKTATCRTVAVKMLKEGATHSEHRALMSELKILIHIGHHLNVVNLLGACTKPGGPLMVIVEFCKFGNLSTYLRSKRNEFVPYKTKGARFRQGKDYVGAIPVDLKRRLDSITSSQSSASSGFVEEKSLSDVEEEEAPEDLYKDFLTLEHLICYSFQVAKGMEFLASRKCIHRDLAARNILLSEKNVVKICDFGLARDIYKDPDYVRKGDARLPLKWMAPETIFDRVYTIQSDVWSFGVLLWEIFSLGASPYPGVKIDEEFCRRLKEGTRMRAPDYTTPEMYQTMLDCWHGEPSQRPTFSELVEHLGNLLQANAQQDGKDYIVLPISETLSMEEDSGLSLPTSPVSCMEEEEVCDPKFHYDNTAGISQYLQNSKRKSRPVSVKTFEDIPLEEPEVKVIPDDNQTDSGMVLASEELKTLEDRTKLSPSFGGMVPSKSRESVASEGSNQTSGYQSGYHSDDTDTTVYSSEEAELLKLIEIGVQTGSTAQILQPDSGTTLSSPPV
Ephrin type-A receptor 2, sequence (P29317 whole entry): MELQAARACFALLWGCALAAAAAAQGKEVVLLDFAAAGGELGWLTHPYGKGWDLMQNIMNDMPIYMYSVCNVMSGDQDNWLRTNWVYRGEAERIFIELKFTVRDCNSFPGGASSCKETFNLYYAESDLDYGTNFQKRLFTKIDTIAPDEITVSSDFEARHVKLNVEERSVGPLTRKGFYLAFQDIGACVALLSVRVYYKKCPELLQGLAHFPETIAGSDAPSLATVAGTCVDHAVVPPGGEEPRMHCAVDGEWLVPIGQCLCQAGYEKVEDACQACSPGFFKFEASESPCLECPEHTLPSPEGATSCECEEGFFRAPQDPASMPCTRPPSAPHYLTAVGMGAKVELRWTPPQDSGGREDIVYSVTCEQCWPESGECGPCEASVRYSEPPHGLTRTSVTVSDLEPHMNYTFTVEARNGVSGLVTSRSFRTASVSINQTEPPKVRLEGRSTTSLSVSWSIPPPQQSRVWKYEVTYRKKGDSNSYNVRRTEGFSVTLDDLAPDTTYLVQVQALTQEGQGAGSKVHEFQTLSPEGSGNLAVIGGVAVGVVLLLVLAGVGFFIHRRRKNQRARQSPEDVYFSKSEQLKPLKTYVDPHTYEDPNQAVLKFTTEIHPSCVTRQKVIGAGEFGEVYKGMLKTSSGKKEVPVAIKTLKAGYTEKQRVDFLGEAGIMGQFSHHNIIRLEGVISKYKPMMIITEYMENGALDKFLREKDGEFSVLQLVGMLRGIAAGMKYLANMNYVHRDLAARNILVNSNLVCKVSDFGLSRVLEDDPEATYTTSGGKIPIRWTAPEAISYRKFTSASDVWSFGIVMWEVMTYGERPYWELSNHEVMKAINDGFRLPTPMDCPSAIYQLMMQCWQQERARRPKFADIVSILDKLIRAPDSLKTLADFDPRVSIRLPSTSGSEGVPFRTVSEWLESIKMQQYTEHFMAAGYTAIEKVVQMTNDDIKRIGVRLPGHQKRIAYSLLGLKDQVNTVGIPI

For orientation: IC50 means the concentration at which inhibition is half-maximal. Low readings indicate inhibition by little substance, high ones a need for much substance. Turning to `COc1cc2c(Nc3ccc(Cl)c(Cl)c3)ncnc2cc1OCc1ccc(Cl)nc1` [US9796704, Entry 171], the values for the IC50 result (in assay [1]; on Ephrin type-A receptor 2; on Ephrin type-B receptor 4) were “in the range around 525 nM”, “in the range around 10500 nM” and “in the range around 525 nM”, respectively.

For the molecule `COc1cc2c(Nc3ccc(Cl)cc3)ncnc2cc1O[C@@H]1CO[C@@H]2[C@H]1OC[C@H]2F` [US9796704, Entry 116], the IC50 result (in assay [1]; against Ephrin type-A receptor 2; against Ephrin type-B receptor 4) was “in the range around 525 nM” each time.

On to `COc1cc2c(Nc3ccc(C)c(Br)c3)ncnc2cc1O[C@@H]1CO[C@@H]2[C@H]1OC[C@H]2F` [US9796704, Entry 131], for which the IC50 entry (in assay [1]; at Ephrin type-A receptor 2; against Ephrin type-B receptor 4) was “in the range around 525 nM” throughout.

On to `COc1cc2c(Nc3ccc(Cl)c(Cl)c3F)ncnc2cc1OCC1CCC2CCCCN2C1` (configuration not stated) [US9796704, Entry 83], for which the IC50 result (in assay [1]; on Ephrin type-A receptor 2; against Ephrin type-B receptor 4) was “in the range around 525 nM” in each case.

On to `COc1cc2c(Nc3ccccc3F)ncnc2cc1O[C@@H]1CO[C@@H]2[C@H]1OC[C@H]2F` [US9796704, Entry 113], for which the IC50 result (in assay [1]; at Ephrin type-A receptor 2; on Ephrin type-B receptor 4) was “in the range around 525 nM” throughout.

Turning to `COc1cc2c(Nc3ccc(Cl)c(Cl)c3)ncnc2cc1OCc1c(C(F)(F)F)nn(C)c1Oc1ccc(Cl)cc1Cl` [US9796704, Entry 181], the IC50 entry (in assay [1]; against Ephrin type-A receptor 2; against Ephrin type-B receptor 4) was “in the range around 525 nM” in each case.

For the molecule `COc1cc2c(Nc3ccc(Cl)c(Cl)c3)ncnc2cc1OCc1cc(-c2ccccc2)no1` [US9796704, Entry 177], the IC50 entry (in assay [1]; at Ephrin type-A receptor 2; against Ephrin type-B receptor 4) was “in the range around 525 nM” each time.

Regarding `COc1cc2c(Nc3ccc(Cl)c(Cl)c3)ncnc2cc1OC[C@@H]1O[C@@H](OC)[C@@H](O)[C@H](O)[C@H]1O` [US9796704, Entry 194], the IC50 result was “in the range around 525 nM” in assay [1], “in the range around 525 nM” against Ephrin type-A receptor 2 and less than 50 nM on Ephrin type-B receptor 4.

Take `COc1cc2c(Nc3ccc(Cl)c(Cl)c3)ncnc2cc1OCc1nc(-c2ccc(Cl)cc2)no1` [US9796704, Entry 168]: the IC50 entry (in assay [1]; against Ephrin type-A receptor 2; against Ephrin type-B receptor 4) was “in the range around 525 nM” throughout.

For `COc1cc2c(Nc3cccc(Cl)c3F)ncnc2cc1O[C@@H]1CO[C@@H]2[C@H]1OC[C@H]2F` [US9796704, Entry 88], the results for the IC50 result (in assay [1]; at Ephrin type-A receptor 2; against Ephrin type-B receptor 4) were “in the range around 10500 nM”, “in the range around 525 nM” and “in the range around 525 nM”, respectively.

Take `COc1cc2c(Nc3cc(C)cc(C)c3)ncnc2cc1O[C@@H]1CO[C@@H]2[C@H]1OC[C@H]2F` [US9796704, Entry 133]: the IC50 entry (in assay [1]; against Ephrin type-A receptor 2; on Ephrin type-B receptor 4) was “in the range around 525 nM” throughout.

Consider `COc1cc2c(Nc3ccc(Cl)c(Cl)c3)ncnc2cc1OCc1csc(C)n1` [US9796704, Entry 173], for which the IC50 entry (in assay [1]; against Ephrin type-A receptor 2; at Ephrin type-B receptor 4) was “in the range around 525 nM” each time.

Turning to `COc1cc2c(Nc3ccc(Cl)c(C(F)(F)F)c3)ncnc2cc1O[C@@H]1CO[C@@H]2[C@H]1OC[C@H]2F` [US9796704, Entry 121], the IC50 entry (in assay [1]; at Ephrin type-A receptor 2; against Ephrin type-B receptor 4) was “in the range around 525 nM” each time.

For the molecule `COc1cc2c(Nc3cc(Cl)ccc3F)ncnc2cc1O[C@@H]1CO[C@@H]2[C@H]1OC[C@H]2F` [US9796704, Entry 93], the IC50 result (in assay [1]; on Ephrin type-A receptor 2; on Ephrin type-B receptor 4) was “in the range around 525 nM” throughout.

Regarding `COc1cc2c(Nc3ccc(Cl)c(Cl)c3)ncnc2cc1OCc1nc2ccccc2s1` [US9796704, Entry 162], the IC50 entry (in assay [1]; at Ephrin type-A receptor 2; at Ephrin type-B receptor 4) was “in the range around 525 nM” throughout.

For `COc1cc2c(Nc3ccc(Cl)c(Cl)c3)ncnc2cc1OCc1cc(Cl)cc2c1OCOC2` [US9796704, Entry 174], the IC50 entry was “in the range around 525 nM” in assay [1], “in the range around 10500 nM” at Ephrin type-A receptor 2 and “in the range around 10500 nM” against Ephrin type-B receptor 4.

`COc1cc(Nc2ncnc3cc(O[C@@H]4CO[C@@H]5[C@H]4OC[C@H]5F)c(OC)cc23)c(OC)cc1Cl` [US9796704, Entry 136]: the IC50 entry (in assay [1]; on Ephrin type-A receptor 2; against Ephrin type-B receptor 4) was “in the range around 525 nM” in each case.

Regarding `C=C1CO[C@@H]2[C@@H](Oc3cc4ncnc(Nc5ccc(Br)c(Cl)c5)c4cc3OC)CO[C@H]12` [US9796704, Entry 81], the IC50 result (in assay [1]; at Ephrin type-A receptor 2; on Ephrin type-B receptor 4) was “in the range around 525 nM” each time.

Regarding `COc1cc2c(Nc3ccc(F)cc3Br)ncnc2cc1O[C@@H]1CO[C@@H]2[C@H]1OC[C@H]2F` [US9796704, Entry 86], the IC50 result (in assay [1]; against Ephrin type-A receptor 2; on Ephrin type-B receptor 4) was “in the range around 525 nM” in each case.

Turning to `COc1cc2c(Nc3cc(C(F)(F)F)ccc3Br)ncnc2cc1O[C@@H]1CO[C@@H]2[C@H]1OC[C@H]2F` [US9796704, Entry 124], the IC50 entry (in assay [1]; against Ephrin type-A receptor 2; against Ephrin type-B receptor 4) was “in the range around 525 nM” in each case.

Turning to `COc1cc2c(Nc3ccc(Cl)c(Cl)c3)ncnc2cc1OCc1c(OC)ccc2cc(Br)ccc12` [US9796704, Entry 169], the IC50 result in assay [1] was “in the range around 525 nM”; at Ephrin type-A receptor 2, “in the range around 10500 nM”; against Ephrin type-B receptor 4 it was “in the range around 525 nM”.

With `COc1cc2c(Nc3ccc(F)cc3C(F)(F)F)ncnc2cc1O[C@@H]1CO[C@@H]2[C@H]1OC[C@H]2F` [US9796704, Entry 126], the IC50 entry in assay [1] is “in the range around 10500 nM”; against Ephrin type-A receptor 2, “in the range around 525 nM”; against Ephrin type-B receptor 4, “in the range around 525 nM”.

`COc1cc2c(Nc3cc(F)ccc3F)ncnc2cc1O[C@@H]1CO[C@@H]2[C@H]1OC[C@H]2F` [US9796704, Entry 91]: the IC50 entry (in assay [1]; against Ephrin type-A receptor 2; at Ephrin type-B receptor 4) was “in the range around 525 nM” in each case.

Consider `COc1cc2c(Nc3ccc(Cl)c(Cl)c3)ncnc2cc1OCc1cnn(-c2ccccc2)c1` [US9796704, Entry 165], for which the IC50 result is “in the range around 10500 nM” in assay [1], “in the range around 525 nM” at Ephrin type-A receptor 2 and “in the range around 525 nM” against Ephrin type-B receptor 4.

With `COc1cc2c(Nc3c(F)cc(F)cc3F)ncnc2cc1O[C@@H]1CO[C@@H]2[C@H]1OC[C@H]2F` [US9796704, Entry 100], the IC50 result (in assay [1]; on Ephrin type-A receptor 2; at Ephrin type-B receptor 4) was “in the range around 525 nM” throughout.

Take `COc1cc2c(Nc3ccc(Cl)c(Cl)c3)ncnc2cc1OCC1CO[C@@H]2C(OC)CO[C@H]12` (some centres not stated) [US9796704, Entry 47]: the IC50 result (in assay [1]; on Ephrin type-A receptor 2; on Ephrin type-B receptor 4) was “in the range around 10500 nM” each time.

For `COc1cc2c(Nc3ccc(Cl)cc3F)ncnc2cc1O[C@@H]1CO[C@@H]2[C@H]1OC[C@H]2F` [US9796704, Entry 109], the IC50 result against Ephrin type-A receptor 2 and on Ephrin type-B receptor 4 was “in the range around 525 nM” in each case.

Regarding `COc1cc2c(Nc3c(F)cccc3F)ncnc2cc1O[C@@H]1CO[C@@H]2[C@H]1OC[C@H]2F` [US9796704, Entry 87], the IC50 entry at Ephrin type-A receptor 2 and against Ephrin type-B receptor 4 was “in the range around 525 nM” in each case.

Source of the values: BindingDB's records for patent US9796704 (SYMPHONY EVOLUTION, INC., 2017).
